Target: ROMK (Kir1.1) channel (Homo sapiens (Human), UniProt P48048)
Experiment: Thallium Flux Assay
Type: cell-based
Experimental: A Thallium Flux Assay was performed on each of the final product compounds of the Examples. This assay has been described previously; see, e.g., PCT Published Application WO 2013/062900.

Chain of ROMK (Kir1.1) channel (P48048 whole entry): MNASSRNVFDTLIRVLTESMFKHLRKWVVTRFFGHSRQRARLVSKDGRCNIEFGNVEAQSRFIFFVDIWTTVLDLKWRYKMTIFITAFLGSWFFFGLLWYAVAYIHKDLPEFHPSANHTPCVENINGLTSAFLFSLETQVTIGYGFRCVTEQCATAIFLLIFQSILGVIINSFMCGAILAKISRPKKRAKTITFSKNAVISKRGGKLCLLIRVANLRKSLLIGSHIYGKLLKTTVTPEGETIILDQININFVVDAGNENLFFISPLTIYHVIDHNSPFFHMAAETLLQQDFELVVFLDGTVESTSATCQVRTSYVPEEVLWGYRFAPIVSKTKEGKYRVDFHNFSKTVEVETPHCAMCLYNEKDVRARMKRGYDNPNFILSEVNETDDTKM

Structure (SMILES): CCCN(C[C@H](O)c1ccc2c(c1C)COC2=O)C1CCC2(CC1)CCN(C1=C(C)C(=O)OC1)C2=O (stereo partly drawn) [Example 132, 8-{[(2R)-2-hydroxy-2-(4-methyl-1-oxo-1,3-dihydro-2-benzofuran-5-yl)ethyl](propyl)amino}-2-(4-methyl-5-oxo-2,5-dihydrofuran-3-yl)-2-azaspiro[4.5]decan-1-one]
- IC50: 100 nM

Structure (SMILES): CC1=C(N2CC[C@]3(CC[C@@H](N[C@H](C)c4ccc(-n5cnnn5)cn4)CC3)C2=O)COC1=O [Example 32]
- IC50: 110 nM

Structure (SMILES): CC1=C(N2CC[C@]3(CC[C@@H](N(C)Cc4ccc5c(c4)CCc4nnnn4-5)CC3)C2=O)COC1=O [Example 112]
- IC50: 32 nM

Structure (SMILES): CC1=C(N2CC[C@]3(CC[C@@H](N[C@@H](C)c4ccc5c(c4)CCc4nnnn4-5)CC3)C2=O)COC1=O [Example 21, (5S,8r)-8-{[(1S)-1-(4,5-dihydrotetrazolo[1,5-a]quinolin-7-yl)ethyl]amino}-2-(4-methyl-5-oxo-2,5-dihydrofuran-3-yl)-2-azaspiro[4.5]decan-1-one]
- IC50: 44 nM

Structure (SMILES): CC1=C(N2CC[C@]3(CC[C@@H](NCc4cc5c(cc4C)-c4nnnn4C5)CC3)C2=O)COC1=O [Example 61, (5r,8r)-2-(4-methyl-5-oxo-2,5-dihydrofuran-3-yl)-8-(((8-methyl-5H-tetrazolo[5,1-a]isoindol-7-yl)methyl)amino)-2-azaspiro[4.5]decan-1-one]
- IC50: 23 nM

Structure (SMILES): C[C@H]1C[C@]2(CC[C@@H](NCc3cnc(-n4cnnn4)cn3)CC2)C(=O)N1C1=CC(=O)OC1 [Example 66, (3S,5r,8S)-8-(((5-(1H-tetrazol-1-yl)pyrazin-2-yl)methyl)amino)-3-methyl-2-(5-oxo-2,5-dihydrofuran-3-yl)-2-azaspiro[4.5]decan-1-one]
- IC50: 7 nM

Structure (SMILES): CC1=C(N2C(=O)[C@]3(CC[C@H](NCc4ccc5c(c4)Cn4nnnc4-5)CC3)C[C@H]2C)COC1=O [Example 60, (3R,5r,8R)-8-(((5H-tetrazolo[5,1-a]isoindol-7-yl)methyl)amino)-3-methyl-2-(4-methyl-5-oxo-2,5-dihydrofuran-3-yl)-2-azaspiro[4.5]decan-1-one]
- IC50: 650 nM

Structure (SMILES): CC1=C(N2CC[C@]3(CC[C@@H](N(C)Cc4cc5c(cc4C)-c4nnnn4C5)CC3)C2=O)COC1=O [Example 122]
- IC50: 26 nM

Structure (SMILES): CC1=C(N2CC[C@]3(CC[C@@H](NCc4ccc(-n5ncnn5)nn4)CC3)C2=O)COC1=O [Example 75, (5r,8r)-8-(((6-(2H-tetrazol-2-yl)pyridazin-3-yl)methyl)amino)-2-(4-methyl-5-oxo-2,5-dihydrofuran-3-yl)-2-azaspiro[4.5]decan-1-one]
- IC50: 9.3 nM

Structure (SMILES): CC1=C(N2CC[C@]3(CC[C@H](N(CC(N)=O)Cc4ccc(-n5cnnn5)nc4)CC3)C2=O)COC1=O [Example 140]
- IC50: 110 nM

Structure (SMILES): CN(Cc1ccc(-n2cnnn2)nn1)C1CCC2(CC1)CCN(C1=CC(=O)OC1)C2=O (stereo not shown) [Example 103]
- IC50: 87 nM

Structure (SMILES): CC1=C(N2CC[C@]3(CC[C@@H](N[C@H](C)c4ccc5c(c4)CCc4nnnn4-5)CC3)C2=O)COC1=O [Example 18, (5R,8r)-8-{[(1R)-1-(4,5-dihydrotetrazolo[1,5-a]quinolin-7-yl)ethyl]amino}-2-(4-methyl-5-oxo-2,5-dihydrofuran-3-yl)-2-azaspiro[4.5]decan-1-one]
- IC50: 330 nM

Structure (SMILES): CC1=C(N2CC[C@]3(CC[C@H](N[C@H](C)c4ccc5c(c4)CCc4nnnn4-5)CC3)C2=O)COC1=O [Example 17, (5S,8s)-8-{[(1R)-1-(4,5-dihydrotetrazolo[1,5-a]quinolin-7-yl)ethyl]amino}-2-(4-methyl-5-oxo-2,5-dihydrofuran-3-yl)-2-azaspiro[4.5]decan-1-one]
- IC50: 340 nM

Structure (SMILES): CC1=C(N2CC[C@]3(CC[C@H](NCc4ccc(-n5cnnn5)cc4)CC3)C2=O)COC1=O [Example 43, (5s,8s)-2-(4-methyl-5-oxo-2,5-dihydrofuran-3-yl)-8-{[4-(1H-tetrazol-1-yl)benzyl]amino}-2-azaspiro[4.5]decan-1-one]
- IC50: 49 nM

Structure (SMILES): CC1C[C@]2(CC[C@@H](NCc3cnc(-n4cnnn4)cn3)CC2)C(=O)N1C1=CC(=O)OC1 (stereo partly shown) [Example 50, (5r,8r)-3-methyl-2-(5-oxo-2,5-dihydrofuran-3-yl)-8-({[5-(1H-tetrazol-1-yl)pyrazin-2-yl]methyl}amino)-2-azaspiro[4.5]decan-1-one]
- IC50: 39 nM

Structure (SMILES): O=C1C=C(N2CC[C@]3(CC[C@H](NCc4cnc(-n5cnnn5)cn4)CC3)C2=O)CO1 [Example 73, (5s,8s)-8-(((5-(1H-tetrazol-1-yl)pyrazin-2-yl)methyl)amino)-2-(5-oxo-2,5-dihydrofuran-3-yl)-2-azaspiro[4.5]decan-1-one]
- IC50: 2000 nM

Structure (SMILES): CC1=C(N2CC[C@]3(CC[C@@H](N(C)[C@H](C)c4ccc(-n5cnnn5)nc4)CC3)C2=O)COC1=O [Example 94]
- IC50: 11 nM

Structure (SMILES): C[C@@H]1C[C@]2(CC[C@H](NCc3ccc(-n4cnnn4)nc3)CC2)C(=O)N1C1=CC(=O)OC1 [Example 27, (3R,5s,8S)-3-methyl-2-(5-oxo-2,5-dihydrofuran-3-yl)-8-({[6-(1H-tetrazol-1-yl)pyridin-3-yl]methyl}amino)-2-azaspiro[4.5]decan-1-one]
- IC50: 38 nM

Structure (SMILES): C[C@H]1C[C@]2(CC[C@H](NCc3cnc(-n4cnnn4)cn3)CC2)C(=O)N1C1=CC(=O)OC1 [Example 28, (3S,5s,8R)-3-methyl-2-(5-oxo-2,5-dihydrofuran-3-yl)-8-({[5-(1H-tetrazol-1-yl)pyrazin-2-yl]methyl}amino)-2-azaspiro[4.5]decan-1-one]
- IC50: 250 nM

Structure (SMILES): CC1=C(N2CC[C@]3(CC[C@@H](N(CC(N)=O)Cc4ccc(-n5cnnn5)nc4)CC3)C2=O)COC1=O [Example 141]
- IC50: 680 nM

Structure (SMILES): CC1=C(N2CC[C@]3(CC[C@@H](N(C)Cc4ccc(-n5ncnn5)cc4)CC3)C2=O)COC1=O [Example 109]
- IC50: 3.4 nM

Structure (SMILES): CC1=C(N2CC[C@]3(CC[C@](C)(NCc4cnc(-n5cnnn5)cn4)CC3)C2=O)COC1=O [Example 68, (5s,8s)-8-(((5-(1H-tetrazol-1-yl)pyrazin-2-yl)methyl)amino)-8-methyl-2-(4-methyl-5-oxo-2,5-dihydrofuran-3-yl)-2-azaspiro[4.5]decan-1-one]
- IC50: 140 nM

Structure (SMILES): C[C@H]1C[C@]2(CC[C@@H](NCc3ccc4c(c3)Cn3nnnc3-4)CC2)C(=O)N1C1=CC(=O)OC1 [Example 63, (3S,5r,8S)-8-(((5H-tetrazolo[5,1-a]isoindol-7-yl)methyl)amino)-3-methyl-2-(5-oxo-2,5-dihydrofuran-3-yl)-2-azaspiro[4.5]decan-1-one]
- IC50: 23 nM

Structure (SMILES): O=C1C=C(N2CC[C@]3(CC[C@@H](NCc4cnc(-n5cnnn5)cn4)CC3)C2=O)CO1 [Example 72, (5r,8r)-8-(((5-(1H-tetrazol-1-yl)pyrazin-2-yl)methyl)amino)-2-(5-oxo-2,5-dihydrofuran-3-yl)-2-azaspiro[4.5]decan-1-one]
- IC50: 340 nM

Structure (SMILES): C[C@@H]1C[C@]2(CC[C@H](NCc3cnc(-n4cnnn4)cn3)CC2)C(=O)N1C1=CC(=O)OC1 [Example 26, (3R,5s,8S)-3-methyl-2-(5-oxo-2,5-dihydrofuran-3-yl)-8-({[5-(1H-tetrazol-1-yl)pyrazin-2-yl]methyl}amino)-2-azaspiro[4.5]decan-1-one]
- IC50: 190 nM

Structure (SMILES): CC1=C(N2CC[C@]3(CC[C@@H](N(C)Cc4ccc5c(c4)Cn4nnnc4-5)CC3)C2=O)COC1=O [Example 106]
- IC50: 8.8 nM

Structure (SMILES): CC1=C(N2CC[C@]3(CC[C@@H](N(C)Cc4ccc(-n5cnnn5)cn4)CC3)C2=O)COC1=O [Example 88]
- IC50: 7 nM

Structure (SMILES): CC1=C(N2CC[C@]3(CC[C@H](N(CC(=O)N(C)C)Cc4ccc(-n5cnnn5)nc4)CC3)C2=O)COC1=O [Example 139]
- IC50: 120 nM

Structure (SMILES): CC1=C(N2CC[C@]3(CC[C@](C)(NCc4ccc(-n5cnnn5)nn4)CC3)C2=O)COC1=O [Example 42, (5s,8s)-8-methyl-2-(4-methyl-5-oxo-2,5-dihydrofuran-3-yl)-8-({[6-(1H-tetrazol-1-yl)pyridazin-3-yl]methyl}amino)-2-azaspiro[4.5]decan-1-one]
- IC50: 70 nM

Structure (SMILES): CC1=C(N2CC[C@]3(CC[C@H](N(CCO)Cc4ccc(-n5cnnn5)nc4)CC3)C2=O)COC1=O [Example 131, (5s,8s)-8-[(2-hydroxyethyl) {[6-(1H-tetrazol-1-yl)pyridin-3-yl]methyl}amino]-2-(4-methyl-5-oxo-2,5-dihydrofuran-3-yl)-2-azaspiro[4.5]decan-1-one]
- IC50: 160 nM

Structure (SMILES): CCN(Cc1ccc2c(c1C)COC2=O)C1CCC2(CC1)CCN(C1=C(C)C(=O)OC1)C2=O (stereo not shown) [Example 142]
- IC50: 490 nM

Structure (SMILES): CC1=C(N2CC[C@]3(CC[C@H](N(C)[C@H](CO)c4ccc(-n5cnnn5)nc4)CC3)C2=O)COC1=O [Example 85]
- IC50: 190 nM

Structure (SMILES): CC1=C(N2CC[C@]3(CC[C@H](NCc4ccc(-n5cnnn5)nc4)CC3)C2=O)COC1=O [Example 6, (5s,8s)-2-(4-methyl-5-oxo-2,5-dihydrofuran-3-yl)-8-({[6-(1H-tetrazol-1-yl)pyridin-3-yl]methyl}amino)-2-azaspiro[4.5]decan-1-one]
- IC50: 450 nM

Structure (SMILES): CC1=C(N2CC[C@]3(CC[C@@H](NCc4ccc5c(c4C)Cn4nnnc4-5)CC3)C2=O)COC1=O [Example 54, (5r,8r)-2-(4-methyl-5-oxo-2,5-dihydrofuran-3-yl)-8-(((6-methyl-5H-tetrazolo[5,1-a]isoindol-7-yl)methyl)amino)-2-azaspiro[4.5]decan-1-one]
- IC50: 32 nM

Structure (SMILES): CC1=C(N2CC[C@]3(CC[C@@H](NCc4ccc(-n5cnnn5)nc4)CC3)C2=O)COC1=O [Example 5, (5r,8r)-2-(4-methyl-5-oxo-2,5-dihydrofuran-3-yl)-8-({[6-(1H-tetrazol-1-yl)pyridin-3-yl]methyl}amino)-2-azaspiro[4.5]decan-1-one]
- IC50: 16 nM

Structure (SMILES): CC1=C(N2CC[C@]3(CC[C@@H](NCc4ncc(-n5cnnn5)nc4C)CC3)C2=O)COC1=O [Example 14, (5r,8r)-2-(4-methyl-5-oxo-2,5-dihydrofuran-3-yl)-8-({[3-methyl-5-(1H-tetrazol-1-yl)pyrazin-2-yl]methyl}amino)-2-azaspiro[4.5]decan-1-one]
- IC50: 30 nM

Structure (SMILES): CCN(Cc1ccc2c(c1)Cn1nnnc1-2)[C@H]1CC[C@@]2(CCN(C3=C(C)C(=O)OC3)C2=O)CC1 [Example 133]
- IC50: 36 nM

Source: patent publication US9718808B2, “Inhibitors of the renal outer medullary potassium channel” (Merck Sharp & Dohme Corp., priority 2014, dated 2017)
